Measurements published in publication PMC11468213, “Ionic Liquid‐Mediated Transdermal Delivery of Thrombosis‐Detecting Nanosensors” (Advanced Healthcare Materials, 2022).
Blank lines part the entries; values can stand above or below the substance they belong to.

What was measured:
[1] = Ex vivo skin penetration, Franz diffusion cell, porcine skin; type: in vitro ADME; conditions: 300 µL, 37 °C, 24 h
Description: Porcine skin samples were placed on Franz diffusion cells, and the diffusion of TDN‐qFAM nanoparticles was tested with different concentrations of CAGE present in the formulation.
Figure 5 A) Confocal microscopy image of a paraffin‐embedded porcine skin section after 24 h of topical administration of TDN‐qFAM in 100% CAGE. Left: bright field; right: fluorescence image. Scale bar: 200 µm. B) Quantitative results of nanoparticles found in ex vivo porcine skin layers using Franz diffusion cell set‐up with different CAGE concentrations. (mean ± s.d., n = 3 independent skin slices).
The skin penetration studies were undertaken using porcine skin in Franz diffusion cells, as described previously in full.^[ [23] ^] Briefly, thawed porcine skin (CBSET, Lexington MA) or mouse skin removed from Swiss Webster strain was placed in a diffusion cell with the stratum corneum facing upwards. The acceptor component of the cell was filled with PBS and equipped with a magnetic stirrer bar. 300 µL was placed on top of the skin, ensuring full coverage. The diffusion cell was placed on a stirrer plate at 37 °C for 24 h, at which point the skin was removed and the surface washed gently with PBS. For quantitative analysis, the stratum corneum was removed by tape stripping (ten layers), the epidermis was separated from the dermis with a scalpel, and a 4 mm punch was used thrice to remove a third of the dermis (by area). The tissue was then placed into a 50% methanol/PBS mixture, and left to shake overnight at RT to extract the drug. 100 µL of the extracted fluid was then placed into a black Corning 96‐well plate and analyzed using a i3 SpectraMax plate reader, with excitation wavelength of 750 nm and an emission wavelength of 775 nm. For the confocal microscopy, the skin was affixed to a cryostat stage with fixing compound and 20 µm slices were taken using a cryostat (Leica CM1950, Leica, Germany). The slices of skin were placed on negatively charged slides (Fisher Scientific, Pittsburgh, PA, USA) and imaged using a confocal microscope (Upright Zeiss LSM 710 NLO) with a 10× air objective.

[2] = Dynamic light scattering size analysis of nanosensors in CAGE; type: physicochemical
Description: (§1) To assess the solubility, stability, and activity of our nanosensors in CAGE, we conjugated a thrombin substrate (–GGfPRSGGG–) to 40 kDa PEG nanoparticles at an 8:1 substrate:nanoparticle ratio. The substrates were flanked by 5‐carboxyfluorescein (5‐FAM) and a Förster resonance energy transfer quencher molecule (CPQ2) in close proximity, such that proteolytic cleavage would result in fluorescence signal (nanoparticle was denoted as TDN‐qFAM, Figure 1A). […] In addition, the colloidal stability of TDN‐qFAM was assessed by the absorption spectrum of TDN‐qFAM in the presence and absence of CAGE after 24 h of room temperature storage (Figure 1C). […]
(§2) The CAGE and TDNs coformulation was prepared by addition of 1 mL of CAGE onto 1 mg of conjugated PEG powder, followed by iterative short mixing and ultrasonication steps until a clear solution was observed. […] Size analysis was performed in dynamic light scattering (ZetaSizer), and absorbance spectra were obtained in Tecan Spectrophotometer. For in vitro cleavage assays, recombinant thrombin (10 × 10^−9 M working concentration) was mixed with TDN‐Q in CAGE (30%) solution (10 × 10^−6 M by peptide), and cleavage was monitored by fluorescence at 535 nm of dequenched 5‐carboxyfluorescein (5‐FAM). […]

endogenous thrombin = molecular target: T1, endogenous thrombin (Mus musculus, UniProt P19221); assay: Cleavage kinetics in mouse serum at different CAGE concentrations; type: biochemical; conditions: 37 °C, fluorescence
T1 construct: The cleavage study was carried out in mouse serum obtained from Sigma Aldrich; tissue Sigma Aldrich; host or cells: mouse serum

[3] = Colloidal stability by absorption spectrum after storage; type: physicochemical; conditions: presence and absence of CAGE; 24 h room temperature storage; absorbance spectrum
Description: as §1, §2

recombinant thrombin = recombinant thrombin (Homo sapiens, UniProt P00734); assay: Fluorescence dequenching cleavage assay with recombinant thrombin; type: biochemical; conditions: fluorescence at 535 nm, triplicate
Description: To assess the solubility, stability, and activity of our nanosensors in CAGE, we conjugated a thrombin substrate (–GGfPRSGGG–) to 40 kDa PEG nanoparticles at an 8:1 substrate:nanoparticle ratio. The substrates were flanked by 5‐carboxyfluorescein (5‐FAM) and a Förster resonance energy transfer quencher molecule (CPQ2) in close proximity, such that proteolytic cleavage would result in fluorescence signal (nanoparticle was denoted as TDN‐qFAM, Figure 1A). […] In addition, the colloidal stability of TDN‐qFAM was assessed by the absorption spectrum of TDN‐qFAM in the presence and absence of CAGE after 24 h of room temperature storage (Figure 1C). […] We then investigated whether the presence of CAGE components influenced the stability of the peptide substrate and the activity of thrombin against TDN‐qFAM. […] However, upon stepwise dilution of CAGE with phosphate buffered saline (PBS), the functionality of TDN‐qFAM against thrombin cleavage was improved.
Figure 1 A) Chemical components of CAGE ionic liquid and schematic representation of TDN‐qFAM nanoparticles with thrombin substrate sequence. B) Dynamic light scattering and C) absorbance spectra of TDN‐qFAM in PBS and CAGE solutions. […]) Fluorescence dequenching experiment for enzyme cleavage kinetics in the presence (empty circles) and absence (full circles) of recombinant thrombin in the TDN‐qFAM/CAGE solution. […]

[4] = Ex vivo skin penetration, Franz diffusion cell, mouse skin; type: in vitro ADME, mouse (Swiss Webster); conditions: 37 °C, 24 h, fluorescence, n = 3 skin samples
Description: Next, we validated the skin penetration of the nanosensors by coformulating unquenched, 5‐FAM labelled, thrombin substrate‐conjugated PEG nanoparticles (TDN‐FAM, Table S1, Supporting Information) and 30% CAGE solution. Ex vivo conditions were established by incubating TDN‐FAM/CAGE with mouse skin samples that were stabilized in a Franz diffusion cell set‐up.^[ [14], [15] ^] Three main layers of skin samples, namely stratum corneum, viable epidermis, and dermis, as well as the PBS solution underneath the skin (acceptor solution), were collected, and nanosensor concentration was quantified via fluorescence spectroscopy.
Figure 2 A) Quantification of TDN‐FAM extracted from different layers of mouse skin via fluorescence readout. SC: Stratum Corneum. […]
The skin penetration studies were undertaken using porcine skin in Franz diffusion cells, as described previously in full.^[ [23] ^] […] For quantitative analysis, the stratum corneum was removed by tape stripping (ten layers), the epidermis was separated from the dermis with a scalpel, and a 4 mm punch was used thrice to remove a third of the dermis (by area). […] 100 µL of the extracted fluid was then placed into a black Corning 96‐well plate and analyzed using a i3 SpectraMax plate reader, with excitation wavelength of 750 nm and an emission wavelength of 775 nm. […]

[5] = tested on: acute pulmonary embolism mouse model; assay: Urinary reporter detection of thrombosis in thromboplastin-injected acute pulmonary embolism mouse model; type: in vivo, Swiss Webster mice; conditions: for ROC AUC: n = 5 per group
Description: Next, we sought to assess whether transdermally delivered nanosensors could detect disease in this model. Thrombin substrate flanked by near‐IR dye, Cy7, was conjugated to PEG nanoparticles (TDN‐Cy7), were solvated in 30% CAGE and administered topically to Swiss Webster mice. The TDN‐Cy7 nanoparticles were designed such that cleavage of the thrombin substrate would liberate a renally clearable fragment with Cy7 that could enable quantification in the urine by fluorescence. Concomitant quantification of plasma‐borne TDN‐Cy7 was performed to normalize the urine signal in order to mitigate the mouse‐to‐mouse variation that may arise due to the heterogeneous skin conditions present across individual subjects. Thromboplastin was intravenously administered to mice at different time points after topical administration of CAGE/TDN solution on the dorsal skin. Urine collection was performed 30 min after thromboplastin injection, and fluorescence measurement was carried out to detect reporter peptides in the urine. […] These finding indicate that topical administration with CAGE achieves circulatory delivery of nanosensors that enable sustained, noninvasive monitoring of thromboembolism in vivo as opposed to bolus injection into the blood.
Figure 4 A) Urinary reporter concentrations relative to plasma TDN‐Cy7 concentrations for thromboplastin‐injected (Thrombosis) and healthy control mice at different time points after nanosensor administration (mean ± s.d., n = 5 mice per group; *P < 0.05 and **P < 0.01, two‐tailed Mann–Whitney's […]). […] C) Urinary reporter concentrations in healthy versus thrombosis mice 6 h after intravenous injection of TDN‐Cy7 (mean ± s.d., n = 5 mice per group; ns: not significant). D) ROC curve calculated from data at panel (C) (AUC = 0.60).
For urine detection of thrombosis, 10 µL of CAGE (30%) containing TDN‐Cy7 nanosensor (4nmoles by peptide) was administered onto previously shaved dorsal skin of Swiss Webster mice, which were subsequently returned to their cages. At different time points postadministration, thromboplastin (0.75 µL g^−1 bodyweight of 4 mg mL^−1 stock in PBS) was injected intravenously, and both urine and blood (retroorbital draw) were collected 30 min p.i. Plasma is collected similar to the pharmacokinetic study and both urine and plasma were stored at −80 °C. Cleaved peptide reporters in the urine was quantified with fluorescence of Cy7 (Excitation 750 nm, emission 790 nm). Plasma levels of TDN‐Cy7 were similarly quantified using fluorescence and used for normalizing the urine signals.

endogenous thrombin activity against nanosensor in mouse serum (endogenous thrombin; 30% CAGE, n = 3 measurements): partially hindered | functionality against thrombin cleavage in mouse serum on dilution of CAGE (endogenous thrombin; stepwise dilution of CAGE with PBS (5%, 1%, 0.1%, 0%), n = 3): improved
Substance: 5FAM-GGfPRSGGGK(CPQ2)-(EG)2-C-[8armPEG] [TDN‐qFAM, Quenched thrombosis detecting nanosensors: 5-FAM/CPQ2-flanked thrombin substrate peptide conjugated to 40 kDa 8-arm PEG nanoparticles]
penetration into porcine skin ([1]; 30% CAGE, fluorescence, n = 3 skin slices): slight increase in penetration | amount transported into porcine skin ([1]; in PBS, acceptor PBS, fluorescence): negligible amount | penetration through porcine skin ([1]; undiluted (100%) CAGE, fluorescence and confocal microscopy, n = 3 skin slices): dramatically improved penetration | aggregation associated size increase (>100 nm), dynamic light scattering ([2]; 30% CAGE solution vs PBS, ZetaSizer): did not exhibit any significant aggregation associated size increase | mean hydrodynamic size when dissolved in CAGE ([2]; CAGE vs PBS, dynamic light scattering): slight increase | absorption maximum at 495 nm (5-FAM) after storage [3]: virtually unchanged | cleavage in the absence of recombinant enzyme (recombinant thrombin; 30% CAGE alone, no thrombin): no cleavage was observed | cleavage (fluorescence dequenching) with recombinant thrombin (recombinant thrombin; 30% CAGE, thrombin 10 × 10^-9 M, nanosensor 10 × 10^-6 M by peptide): clear cleavage profile with gradual increase in fluorescence intensity

Substance: 5FAM-GGfPRSGGGK-(EG)2-C-[8armPEG] [TDN‐FAM, Unquenched 5-carboxyfluorescein conjugated thrombosis detecting nanosensors on 8-arm PEG]
signal in dermis layer and acceptor solution ([4]; 30% CAGE vs PBS, 300 µL, acceptor PBS): markedly increased signal | recovery from dermis and acceptor layers ([4]; 50% CAGE vs 30% CAGE): even higher recovery

Substance: Cy7-GGfPRSGGGK-(EG)2-C-[8armPEG] [TDN‐Cy7, Unquenched Cy7 conjugated thrombosis detecting nanosensors on 8-arm PEG]
ROC AUC ([5]; 6 h after intravenous injection): 0.60 | amount of reporter in urine vs healthy background ([5]; intravenous injection 6 h before thromboplastin, n = 5): not significantly different from healthy background | urinary reporter signal, diseased vs healthy mice ([5]; topical 30% CAGE, 4 nmoles by peptide, thromboplastin 6 h after administration, urine 30 min later, normalised to plasma, n = 5, P = 0.0079): significantly increased | ROC AUC ([5]; topical 30% CAGE, 6 h after nanosensor administration): 1.00 | ROC AUC ([5]; topical 30% CAGE, 12 h after nanosensor administration): 1.00 | ROC AUC ([5]; topical 30% CAGE, 24 h after nanosensor administration): 0.96 | ROC AUC ([5]; topical 30% CAGE, 48 h after nanosensor administration): 0.84 | ROC AUC ([5]; topical 30% CAGE, 72 h after nanosensor administration): 0.72 | diagnostic power of urinary reporter ([5]; topical 30% CAGE, thrombosis induced at 12 h, n = 5): retained their diagnostic power | diagnostic power of urinary reporter ([5]; topical 30% CAGE, thrombosis induced at 24 hours, n = 5): retained their diagnostic power | discrimination of diseased from healthy mice ([5]; topical 30% CAGE, thrombosis induced at 48 hours, n = 5): could not discriminate diseased from healthy mice | discrimination of diseased from healthy mice ([5]; topical 30% CAGE, thrombosis induced at 72 hours, n = 5): could not discriminate diseased from healthy mice
